# Measured values taken from ChEMBL document CHEMBL4251601 (Eur J Med Chem, 2018).
# How the values were obtained:
# [1] = tested on: Mitogen-activated protein kinase kinase kinase 7; experiment: Inhibition of TAK1 (unknown origin) at 1 uM by TR-FRET assay relative to control; conditions: Homo sapiens
# [2] = molecular target: Vascular endothelial growth factor receptor 2 (Homo sapiens) (UniProt P35968); experiment: Inhibition of recombinant human His-tagged KDR cytoplasmic domain expressed in baculovirus expression system at 1 uM by Z'-Lyte assay relative to control
# [3] = Tmax in CD-1 mouse brain at 10 mg/kg, po administered as single dose by LC-MS/MS analysis; type: ADME, organism-based
# [4] = Volume of distribution at steady state in ICR mouse at 2 mg/kg, iv administered as single dose by LC-MS/MS analysis; type: ADME, organism-based; conditions: in vivo, read-out: Vdss
# [5] = molecular target: Phosphatidylinositol 4,5-bisphosphate 3-kinase catalytic subunit delta isoform (Homo sapiens) (UniProt O00329); experiment: Inhibition of PI3K delta (unknown origin) at 1 uM by ADP-Glo assay relative to control
# [6] = AUC (0 to 24 hrs) in ICR mouse at 5 mg/kg, po administered as single dose by LC-MS/MS analysis; type: ADME, organism-based; design: time < 24 hr, dose 5 mg/kg, route oral; conditions: in vivo
# [7] = molecular target: Aurora kinase A (Homo sapiens) (UniProt O14965); experiment: Inhibition of recombinant full length human His-tagged AURKA expressed in baculovirus expression system at 1 uM by Z'-Lyte assay relative to control
# [8] = molecular target: Tyrosine-protein kinase JAK1 (Homo sapiens) (UniProt P23458); experiment: Inhibition of recombinant human GST-tagged JAK1 expressed in baculovirus expression system at 0.1 uM by TR-FRET assay relative to control
# [9] = molecular target: Serine/threonine-protein kinase PAK 1 (Homo sapiens) (UniProt Q13153); experiment: Inhibition of recombinant human full length GST-tagged PAK1 expressed in baculovirus expression system at 1 uM by Z'-Lyte assay relative to control
# [10] = molecular target: Tyrosine-protein kinase Mer (Homo sapiens) (UniProt Q12866); experiment: Inhibition of recombinant human GST-tagged MERTK (578 to 872 residues) expressed in baculovirus expression system at 1 uM by Z'-Lyte assay relative to control
# [11] = molecular target: Dual specificity protein kinase CLK1 (Homo sapiens) (UniProt P49759); experiment: Inhibition of recombinant human GST-tagged CLK1 expressed in Escherichia coli at 1 uM by Z'-Lyte assay relative to control
# [12] = molecular target: Proto-oncogene tyrosine-protein kinase Src (Homo sapiens) (UniProt P12931); experiment: Inhibition of recombinant human full length His-tagged SRC expressed in baculovirus expression system at 1 uM by Z'-Lyte assay relative to control
# [13] = molecular target: Casein kinase I isoform gamma-1 (Homo sapiens) (UniProt Q9HCP0); experiment: Inhibition of recombinant full length human GST-tagged CK1gamma1 expressed in baculovirus expression system at 0.1 uM by Z'-Lyte assay relative to control
# [14] = Unbound AUC (0 to 24 hrs) in CD-1 mouse brain at 10 mg/kg, po administered as single dose by LC-MS/MS analysis; type: ADME, organism-based; conditions: in vivo
# [15] = molecular target: Ephrin type-B receptor 2 (Homo sapiens) (UniProt P29323); experiment: Inhibition of recombinant human GST-tagged EPHB2 cytoplasmic domain (616 to 884 residues) expressed in baculovirus expression system at 0.1 uM by Z'-Lyte assay relative to control
# [16] = molecular target: Cytoplasmic tyrosine-protein kinase BMX (Homo sapiens) (UniProt P51813); experiment: Inhibition of recombinant full length human His-tagged BMX expressed in baculovirus expression system at 0.1 uM by TR-FRET assay relative to control
# [17] = molecular target: T1, Mitogen-activated protein kinase kinase kinase 14 (Homo sapiens, UniProt Q99558); experiment: Inhibition of recombinant human GST-tagged NIK expressed in baculovirus expression system at 0.1 uM by Z'-Lyte assay relative to control
# [18] = molecular target: Tyrosine-protein kinase receptor TYRO3 (Homo sapiens) (UniProt Q06418); experiment: Inhibition of recombinant human GST-tagged TYRO3 cytoplasmic domain (451 to 890 residues) expressed in baculovirus expression system at 1 uM by Z'-Lyte assay relative to control
# [19] = molecular target: 3-phosphoinositide-dependent protein kinase 1 (Homo sapiens) (UniProt O15530); experiment: Inhibition of recombinant human full length His-tagged PDK1 expressed in baculovirus expression system at 1 uM by Z'-Lyte assay relative to control
# [20] = molecular target: RAF proto-oncogene serine/threonine-protein kinase (Homo sapiens) (UniProt P04049); experiment: Inhibition of RAF1 (unknown origin) at 1 uM by TR-FRET assay relative to control
# [21] = molecular target: Tyrosine-protein kinase JAK2 (Homo sapiens) (UniProt O60674); experiment: Inhibition of recombinant human GST-tagged JAK2 expressed in baculovirus expression system at 0.1 uM by TR-FRET assay relative to control
# [22] = molecular target: Beta-adrenergic receptor kinase 1 (Homo sapiens) (UniProt P25098); experiment: Inhibition of recombinant human full length His-tagged GRK2 expressed in baculovirus expression system at 0.1 uM by Z'-Lyte assay relative to control
# [23] = molecular target: Leucine-rich repeat serine/threonine-protein kinase 2 (Homo sapiens) (UniProt Q5S007); experiment: Inhibition of recombinant human GST-tagged LRRK2 (970 to 2527 residues) expressed in baculovirus expression system at 1 uM by TR-FRET assay relative to control
# [24] = Cmax in CD-1 mouse plasma at 10 mg/kg, po administered as single dose by LC-MS/MS analysis; type: ADME, organism-based; design: dose 10 mg/kg, route oral
# [25] = Dissociation constant, pKa of the compound at pH 3 to 11 by pH metric method; type: physicochemical
# U-87 MG [26] = experiment: Antitumor activity against luciferase-fused human U87MG cells orthotopically xenografted in nude mouse assessed as tumor growth inhibition at 6.25 mg/kg, po qd for 4 weeks by bioluminescence imaging relative to control; type: functional, U-87MG ATCC; conditions: 672 h, read-out: TGI
# [27] = molecular target: cAMP-dependent protein kinase catalytic subunit alpha (Homo sapiens) (UniProt P17612); experiment: Inhibition of recombinant human His-tagged PKA expressed in Escherichia coli at 1 uM by Z'-Lyte assay relative to control
# U-87 MG [28] = experiment: Antitumor activity against luciferase-fused human U87MG cells orthotopically xenografted in nude mouse assessed as increase in mouse life span at 3.125 mg/kg, po qd for 5 weeks relative to control; type: functional, U-87MG ATCC; conditions: 840 h
# [29] = Tmax in CD-1 mouse plasma at 10 mg/kg, po administered as single dose by LC-MS/MS analysis; type: ADME, organism-based
# [30] = molecular target: Proto-oncogene tyrosine-protein kinase receptor Ret (Homo sapiens) (UniProt P07949); experiment: Inhibition of recombinant human GST-tagged RET cytoplasmic domain (658 to 1114 residues) expressed in baculovirus expression system at 1 uM by Z'-Lyte assay relative to control
# [31] = molecular target: Serine/threonine-protein kinase PAK 1 (Homo sapiens) (UniProt Q13153); experiment: Inhibition of recombinant human full length GST-tagged PAK1 expressed in baculovirus expression system at 0.1 uM by Z'-Lyte assay relative to control
# [32] = molecular target: T1, Mitogen-activated protein kinase kinase kinase 14; experiment: Inhibition of recombinant human GST-tagged NIK expressed in baculovirus expression system using ser/thr-7 as substrate preincubated for 15 mins followed by ATP addition measured after 60 mins
# Chain of Serine/threonine-protein kinase PAK 1 (Homo sapiens) (Q13153 whole entry, the tested form may be a part): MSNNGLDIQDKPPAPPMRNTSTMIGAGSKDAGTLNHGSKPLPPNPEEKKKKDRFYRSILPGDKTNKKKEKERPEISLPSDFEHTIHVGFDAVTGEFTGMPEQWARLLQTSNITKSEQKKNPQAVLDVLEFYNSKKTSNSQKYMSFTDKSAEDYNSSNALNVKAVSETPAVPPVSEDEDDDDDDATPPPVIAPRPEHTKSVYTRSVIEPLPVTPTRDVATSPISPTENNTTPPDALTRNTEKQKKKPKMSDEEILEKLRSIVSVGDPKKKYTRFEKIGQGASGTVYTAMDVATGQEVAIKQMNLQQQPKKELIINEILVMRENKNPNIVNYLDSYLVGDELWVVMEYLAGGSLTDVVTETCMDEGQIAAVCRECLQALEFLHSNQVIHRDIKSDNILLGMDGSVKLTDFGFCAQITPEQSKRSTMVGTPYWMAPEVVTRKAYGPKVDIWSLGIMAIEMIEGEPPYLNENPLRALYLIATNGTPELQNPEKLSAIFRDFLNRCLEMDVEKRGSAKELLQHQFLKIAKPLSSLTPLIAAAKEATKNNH
# Chain of Leucine-rich repeat serine/threonine-protein kinase 2 (Homo sapiens) (Q5S007 whole entry, the tested form may be a part): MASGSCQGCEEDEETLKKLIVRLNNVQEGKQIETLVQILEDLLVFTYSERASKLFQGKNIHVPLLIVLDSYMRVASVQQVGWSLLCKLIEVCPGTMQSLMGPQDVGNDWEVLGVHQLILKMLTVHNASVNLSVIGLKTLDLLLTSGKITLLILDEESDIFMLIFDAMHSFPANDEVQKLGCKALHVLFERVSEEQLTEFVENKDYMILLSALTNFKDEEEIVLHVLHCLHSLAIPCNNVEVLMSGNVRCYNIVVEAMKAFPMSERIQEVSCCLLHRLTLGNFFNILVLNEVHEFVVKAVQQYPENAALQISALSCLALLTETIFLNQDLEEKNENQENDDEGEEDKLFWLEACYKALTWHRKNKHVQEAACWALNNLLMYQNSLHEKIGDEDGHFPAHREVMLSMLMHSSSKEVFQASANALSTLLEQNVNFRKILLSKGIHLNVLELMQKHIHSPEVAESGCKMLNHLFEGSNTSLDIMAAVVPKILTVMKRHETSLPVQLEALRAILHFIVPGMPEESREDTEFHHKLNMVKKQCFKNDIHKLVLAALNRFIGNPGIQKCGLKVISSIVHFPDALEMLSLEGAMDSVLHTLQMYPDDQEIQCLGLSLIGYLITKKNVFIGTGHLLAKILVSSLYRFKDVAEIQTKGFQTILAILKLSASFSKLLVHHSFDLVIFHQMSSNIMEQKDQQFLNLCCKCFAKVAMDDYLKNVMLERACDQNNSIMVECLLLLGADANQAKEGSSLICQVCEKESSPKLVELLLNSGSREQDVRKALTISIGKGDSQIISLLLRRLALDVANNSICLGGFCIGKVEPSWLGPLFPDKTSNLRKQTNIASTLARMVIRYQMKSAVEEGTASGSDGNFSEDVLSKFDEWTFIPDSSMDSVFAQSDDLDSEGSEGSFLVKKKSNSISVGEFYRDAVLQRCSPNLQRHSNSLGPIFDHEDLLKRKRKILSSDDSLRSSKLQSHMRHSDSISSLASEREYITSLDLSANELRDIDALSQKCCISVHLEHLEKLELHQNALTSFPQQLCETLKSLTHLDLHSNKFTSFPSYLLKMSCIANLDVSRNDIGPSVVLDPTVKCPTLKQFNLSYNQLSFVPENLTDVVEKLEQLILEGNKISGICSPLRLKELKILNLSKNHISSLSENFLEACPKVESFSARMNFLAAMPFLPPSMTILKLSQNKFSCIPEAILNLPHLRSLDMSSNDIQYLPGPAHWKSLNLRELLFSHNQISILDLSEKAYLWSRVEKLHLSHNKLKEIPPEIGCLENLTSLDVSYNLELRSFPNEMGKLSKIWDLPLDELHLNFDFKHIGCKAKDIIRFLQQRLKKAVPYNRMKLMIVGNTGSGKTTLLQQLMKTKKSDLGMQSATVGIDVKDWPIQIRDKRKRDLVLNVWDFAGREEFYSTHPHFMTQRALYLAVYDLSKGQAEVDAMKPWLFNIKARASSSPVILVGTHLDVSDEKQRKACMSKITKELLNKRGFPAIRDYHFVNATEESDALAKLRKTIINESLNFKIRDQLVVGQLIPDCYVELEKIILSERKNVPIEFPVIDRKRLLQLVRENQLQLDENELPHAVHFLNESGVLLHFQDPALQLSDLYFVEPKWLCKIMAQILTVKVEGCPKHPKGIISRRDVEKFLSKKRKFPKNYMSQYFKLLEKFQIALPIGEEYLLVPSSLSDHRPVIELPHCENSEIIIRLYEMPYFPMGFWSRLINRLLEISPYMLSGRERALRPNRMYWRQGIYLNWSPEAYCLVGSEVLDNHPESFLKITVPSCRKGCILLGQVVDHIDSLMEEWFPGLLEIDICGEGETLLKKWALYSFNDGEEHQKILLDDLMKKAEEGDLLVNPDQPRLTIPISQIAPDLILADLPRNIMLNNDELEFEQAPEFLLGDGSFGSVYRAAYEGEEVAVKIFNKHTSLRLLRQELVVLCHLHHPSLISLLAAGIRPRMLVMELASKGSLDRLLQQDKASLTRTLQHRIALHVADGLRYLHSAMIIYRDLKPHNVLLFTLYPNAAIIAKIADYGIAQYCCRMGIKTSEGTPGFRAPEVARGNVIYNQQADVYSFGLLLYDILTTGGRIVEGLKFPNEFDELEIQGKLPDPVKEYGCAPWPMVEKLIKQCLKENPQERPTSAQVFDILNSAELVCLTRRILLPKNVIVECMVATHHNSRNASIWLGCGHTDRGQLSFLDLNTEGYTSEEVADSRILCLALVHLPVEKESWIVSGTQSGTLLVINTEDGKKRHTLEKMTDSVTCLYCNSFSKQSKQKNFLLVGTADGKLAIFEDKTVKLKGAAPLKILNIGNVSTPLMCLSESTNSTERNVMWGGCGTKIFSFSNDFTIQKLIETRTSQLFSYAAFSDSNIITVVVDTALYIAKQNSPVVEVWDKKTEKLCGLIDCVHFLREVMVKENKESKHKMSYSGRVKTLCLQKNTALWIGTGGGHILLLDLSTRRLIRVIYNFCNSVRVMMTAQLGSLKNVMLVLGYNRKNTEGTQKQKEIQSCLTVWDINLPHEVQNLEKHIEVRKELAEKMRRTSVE
# Chain of Vascular endothelial growth factor receptor 2 (Homo sapiens) (P35968 whole entry, the tested form may be a part): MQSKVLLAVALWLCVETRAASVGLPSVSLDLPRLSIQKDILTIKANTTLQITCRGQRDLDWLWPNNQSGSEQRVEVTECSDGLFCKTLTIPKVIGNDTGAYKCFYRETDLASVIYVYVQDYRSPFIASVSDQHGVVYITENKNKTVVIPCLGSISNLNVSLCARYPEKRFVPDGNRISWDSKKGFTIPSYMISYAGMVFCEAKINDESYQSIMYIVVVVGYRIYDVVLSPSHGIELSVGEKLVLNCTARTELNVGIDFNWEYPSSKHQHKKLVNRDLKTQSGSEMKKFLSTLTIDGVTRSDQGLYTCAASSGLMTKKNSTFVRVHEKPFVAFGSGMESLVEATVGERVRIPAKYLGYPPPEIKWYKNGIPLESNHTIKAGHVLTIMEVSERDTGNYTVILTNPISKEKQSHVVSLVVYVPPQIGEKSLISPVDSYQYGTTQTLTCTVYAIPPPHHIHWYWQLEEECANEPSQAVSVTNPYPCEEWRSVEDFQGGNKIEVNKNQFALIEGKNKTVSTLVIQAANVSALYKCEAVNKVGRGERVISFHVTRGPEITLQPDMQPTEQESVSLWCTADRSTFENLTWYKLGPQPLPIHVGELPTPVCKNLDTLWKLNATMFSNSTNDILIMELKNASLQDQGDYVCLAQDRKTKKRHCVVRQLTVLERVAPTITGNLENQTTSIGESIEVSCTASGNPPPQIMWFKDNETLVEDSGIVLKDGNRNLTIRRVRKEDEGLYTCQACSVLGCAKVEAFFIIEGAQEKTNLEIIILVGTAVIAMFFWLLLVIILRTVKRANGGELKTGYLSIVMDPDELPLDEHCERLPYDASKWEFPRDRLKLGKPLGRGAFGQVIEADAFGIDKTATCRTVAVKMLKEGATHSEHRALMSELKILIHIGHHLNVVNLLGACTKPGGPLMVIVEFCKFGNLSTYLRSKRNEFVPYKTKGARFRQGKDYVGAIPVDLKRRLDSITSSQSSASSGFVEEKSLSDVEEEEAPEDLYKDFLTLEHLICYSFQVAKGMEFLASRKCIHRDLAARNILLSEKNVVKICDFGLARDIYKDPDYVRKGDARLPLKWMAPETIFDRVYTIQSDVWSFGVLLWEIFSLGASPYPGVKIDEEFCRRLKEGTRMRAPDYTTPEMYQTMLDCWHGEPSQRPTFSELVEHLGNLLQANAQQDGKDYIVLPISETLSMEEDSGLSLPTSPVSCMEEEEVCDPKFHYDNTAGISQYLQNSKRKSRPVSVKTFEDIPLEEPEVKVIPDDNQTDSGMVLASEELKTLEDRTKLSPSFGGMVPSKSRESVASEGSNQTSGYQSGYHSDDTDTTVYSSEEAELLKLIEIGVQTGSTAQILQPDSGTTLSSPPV
# Chain of Casein kinase I isoform gamma-1 (Homo sapiens) (Q9HCP0 whole entry, looked up, canonical isoform): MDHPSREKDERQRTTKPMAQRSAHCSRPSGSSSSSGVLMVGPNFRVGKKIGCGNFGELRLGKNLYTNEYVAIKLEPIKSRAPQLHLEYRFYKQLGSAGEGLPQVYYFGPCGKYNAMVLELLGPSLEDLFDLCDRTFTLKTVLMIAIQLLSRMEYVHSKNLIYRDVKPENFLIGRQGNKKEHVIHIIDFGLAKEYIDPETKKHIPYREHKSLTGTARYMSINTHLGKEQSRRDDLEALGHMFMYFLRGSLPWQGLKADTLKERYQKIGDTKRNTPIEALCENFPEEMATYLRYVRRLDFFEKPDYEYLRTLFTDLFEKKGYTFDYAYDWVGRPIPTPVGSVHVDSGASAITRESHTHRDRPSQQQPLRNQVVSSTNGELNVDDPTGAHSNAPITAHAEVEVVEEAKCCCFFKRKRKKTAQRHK
structure (smiles),measurement,setting,value
CC1=Nc2c(F)cc(-c3nc(Nc4ccc(C5CCN(C)CC5)cn4)ncc3F)cc2C12CCCC2 [CROZBACICLIB],inhibition,[1],17%
same,inhibition,[2],14%
same,Tmax,[3],2 h
same,Vd,[4],17.8 L/kg
same,inhibition,[5],14%
same,AUC(0-t) at 24 h,[6],2130 ng·h/mL
same,inhibition,[7],6%
same,inhibition,[8],7%
same,inhibition,[9],28%
same,inhibition,[10],13%
same,inhibition,[11],99%
same,inhibition,[12],7%
same,inhibition,[13],3%
same,fAUC,[14],14.87 ng·h/g
same,inhibition,[15],-8%
same,inhibition,[16],9%
same,inhibition,[17],56%
same,inhibition,[18],4%
same,inhibition,[19],4%
same,inhibition,[20],0%
same,inhibition,[21],24%
same,inhibition,[22],-2%
same,inhibition,[23],34%
same,Cmax,[24],818 ng/mL
same,pKa,[25],8.19
same,inhibition in vivo at 6.25 mg/kg,U-87 MG [26],79%
same,inhibition,[27],8%
same,ILS at 3.125 mg/kg,U-87 MG [28],28%
same,Tmax,[29],2 h
same,inhibition,[30],10%
same,inhibition,[31],-2%
same,IC50,[32],45 nM
